# Data reported in US20170112861A1, “DRUG DELIVERY ENHANCER COMPRISING SUBSTANCE FOR ACTIVATING LYSOPHOSPHOLIPID RECEPTORS” (Osaka University, priority 2014, published 2017).
# Legend:
# [1] = tested on: Mouse colon cancer colon 26 cells; assay: Combined administration of LPA and oxaliplatin, tumor growth in colon 26 cell tumor-bearing mice; format: in vivo; conditions: colon 26 tumors in BALB/c mice; LPA 3 mg/kg i.p.; oxaliplatin 1.5 mg/kg i.p.
# Method: LLC cells were subcutaneously inoculated into C57BL/6 NCrSlc mice aged 8 weeks in the same manner as in Example 1. An LPA administration solution was prepared in the same manner as in Example 1. The anticancer drug used was 5-FU (Kyowa Hakko Kirin Co., Ltd.). The 5-FU was prepared as a solution in physiological saline (Otsuka Pharmaceutical Co., Ltd.). On day 7 post-inoculation of LLC cells, mice with a tumor volume of 30 to 50 mm^3 were selected and subjected to the test. The mice were divided into four groups: control group, 5-FU group, LPA group and 5-FU/LPA group (n=3). LPA (3 mg/kg in 100 μL PBS) or 5-FU (100 mg/kg in 100 μL PBS) or PBS (100 μL) was administered intraperitoneally. To 5-FU/LPA group, both LPA and 5-FU were administered intraperitoneally. LPA and PBS were administered once daily for consecutive seven days. 5-FU was administered twice in total, once a week for two weeks (on days 7 and 14 post-inoculation). The tumor size was measured over time after start of administration. The tumor volume was calculated by the formula: volume=length×width×height×0.5. Mice at 2 weeks after start of administration were photographed with a digital camera under anesthesia with pentobarbital. The tumors were harvested and photographed with a digital camera.
# Mouse colon cancer colon 26 cells were used. […]
# [2] = tested on: newly formed blood vessels in the choroid; assay: Age-related macular degeneration model (laser-induced choroidal neovascularization), dextran leakage; format: in vivo, mice; conditions: LPA 3 mg/kg i.p. on days 5 and 6 after laser irradiation, day 7, vs control
# Excerpt: C57BL/6 NCrSlc mice aged 8 weeks (females, SLC, Inc.) were used. Tropicamide (Santen Pharmaceutical) was dropped in the eyes of the mice under anesthesia with pentobarbital (Kyoritsu Seiyaku Corporation) to dilate the pupil. The retina surrounding the optic disc of the ocular fundus was irradiated with a laser (Ultima 2000 SE) at four sites in each of the eyes of the mice under observation with a slit lamp microscope for the induction of choroidal neovascularization. The laser irradiation conditions were 150 mW, 0.05 seconds, and 75 μm. LPA (3 mg/kg in 100 μL PBS) was intraperitoneally administered to LPA group (n=3) on days 5 and 6 after laser irradiation, and PBS (100 μL) was intraperitoneally administered to control group (n=3) on days 5 and 6 after laser irradiation. On day 7 after laser irradiation (at 48 hours after first administration of LPA), FITC-labeled 70 kDa dextran (Sigma) was administered to the tail vein of the mice under anesthesia with pentobarbital. The dextran was prepared as a solution by dissolving and diluting the FITC-labeled 70 kDa dextran in PBS to a concentration of 5 mg/mL, and 50 μL of the solution was used for the administration. At 10 minutes after dextran administration, the eyeballs were collected. […]
substance,measurement,setting,value
lysophosphatidic acid [LPA],tumor growth (tumor volume),[1],"some inhibitory effects on tumor growth as compared with the control, up to day 17 post-inoculation"
same,leakage of FITC-labeled 70 kDa dextran from newly formed blood vessels,[2],the leakage of dextran was significantly inhibited
same,size of the newly formed blood vessels in the choroid,[2],no significant difference was observed
